{"source": "the supplement of paper PMC10307832", "assay_in_all_cases": "relative viability (nuclei count vs DMSO), 5 days (fraction); higher = more cells survive", "key": {"Trametinib + Tozasertib": {"compound": "CC(=O)Nc1cccc(-n2c(=O)n(C3CC3)c(=O)c3c(Nc4ccc(I)cc4F)n(C)c(=O)c(C)c32)c1 [Trametinib] + Cc1cc(Nc2cc(N3CCN(C)CC3)nc(Sc3ccc(NC(=O)C4CC4)cc3)n2)n[nH]1 [Tozasertib] (partner 0.1 µM)", "how_it_was_run": "(§1)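 Relative viability divides the nuclei count in treated wells by that in vehicle wells. Lung cancer cell lines were seeded in 1536-well plates, dosed by pin tool the next day, and fixed and stained after 5 days in one step with final 0.05% Triton X-100, 1% formaldehyde and 1 ug/ml Hoechst. Dosing was a single drug or a fixed anchor-drug dose plus five library-drug doses (not always all listed) in √10 steps, and values are medians of duplicate plates imaged at 4×.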"}, "[1]": {"compound": "CN1C=C(C2=CC=CC=C21)/C=C\\3/C4=C(C=CC=N4)NC3=O + CC(C)C[C@H](NC(=O)[C@H](Cc1ccccc1)NC(=O)c1cnccn1)B(O)O [Bortezomib] (partner 0.002 µM)", "how_it_was_run": "as §1"}, "[2]": {"compound": "CN1C=C(C2=CC=CC=C21)/C=C\\3/C4=C(C=CC=N4)NC3=O + CC1(C)CCC(c2ccc(Cl)cc2)=C(CN2CCN(c3ccc(C(=O)NS(=O)(=O)c4ccc(N[C@H](CCN5CCOCC5)CSc5ccccc5)c(S(=O)(=O)C(F)(F)F)c4)cc3)CC2)C1 [Navitoclax] (partner 0.5 µM)", "how_it_was_run": "as §1"}, "[3]": {"compound": "CN1C=C(C2=CC=CC=C21)/C=C\\3/C4=C(C=CC=N4)NC3=O + Cc1cc(Nc2cc(N3CCN(C)CC3)nc(Sc3ccc(NC(=O)C4CC4)cc3)n2)n[nH]1 [Tozasertib] (partner 0.1 µM)", "how_it_was_run": "as §1"}}, "data": [{"cell line": "UMC-11", "values": [{"measurement": "relative viability", "setting": "Trametinib + Tozasertib; first compound 0.0025 µM", "result": 0.199}, {"measurement": "relative viability", "setting": "Trametinib + Tozasertib; first compound 0.007906 µM", "result": 0.195}, {"measurement": "relative viability", "setting": "Trametinib + Tozasertib; first compound 0.07906 µM", "result": 0.19}, {"measurement": "relative viability", "setting": "Trametinib + Tozasertib; first compound 0.25 µM", "result": 0.211}, {"measurement": "relative viability", "setting": "[1]; first compound 0.02 µM", "result": 0.668}, {"measurement": "relative viability", "setting": "[1]; first compound 0.06325 µM", "result": 0.263}, {"measurement": "relative viability", "setting": "[1]; first compound 0.2 µM", "result": 0.572}, {"measurement": "relative viability", "setting": "[1]; first compound 0.6325 µM", "result": 0.761}, {"measurement": "relative viability", "setting": "[1]; first compound 2 µM", "result": 0.926}, {"measurement": "relative viability", "setting": "[2]; first compound 0.02 µM", "result": 0.24}, {"measurement": "relative viability", "setting": "[2]; first compound 0.06325 µM", "result": 0.318}, {"measurement": "relative viability", "setting": "[2]; first compound 0.2 µM", "result": 0.288}, {"measurement": "relative viability", "setting": "[2]; first compound 0.6325 µM", "result": 0.362}, {"measurement": "relative viability", "setting": "[2]; first compound 2 µM", "result": 0.391}, {"measurement": "relative viability", "setting": "[3]; first compound 0.02 µM", "result": 0.206}, {"measurement": "relative viability", "setting": "[3]; first compound 0.06325 µM", "result": 0.198}, {"measurement": "relative viability", "setting": "[3]; first compound 0.2 µM", "result": 0.177}, {"measurement": "relative viability", "setting": "[3]; first compound 0.6325 µM", "result": 0.191}, {"measurement": "relative viability", "setting": "[3]; first compound 2 µM", "result": 0.227}]}]}
